# Data as given in patent publication US20260263555A1, “ANNEXIN A1 DELAYED DOSING” (Reso Ther Pharma A/S, priority 2023, published 2026).
# Entries after “also recorded” stand apart in the source; their conditions may differ. No end group written: not given here.
# How the values were obtained:
# [1] = test system: recruitment of neutrophils to the site of injury/inflammation; details: models of myocardial I/R, mesentery I/R, glycogen peritonitis and IL1 air pouch; cited from earlier work
# [2] = test system: rat model of acute myocardial infarction; assay: Delayed Annexin A1 peptide dosing in a rat model of acute myocardial infarction (30 minutes ischemia, 24 hours reperfusion; Evans blue/TTC infarct size); type: in vivo, Sprague Dawley rats; details: vs vehicle
# Description: Myocardial infarction was induced by 30 minutes ischemia via obstruction of coronary perfusion by occlusion of the left coronary artery followed by 24 hours reperfusion. Sprague Dawley rats were treated by administration with Peptide 1 (30 ug/kg) three times with treatment initiation either at the time of reperfusion (T0 h, T3 h, T6 h) (Group 1), or with a delayed treatment initiation starting either at 1 hour post establishment of reperfusion (T1 h, T4 h, T7 h) (Group 2), or at 2 hours post establishment of reperfusion (T2 h, T5 h, T8 h) (Group 3).
# At the end of 24 hours reperfusion period, the left coronary artery was reoccluded and Evans blue dye solution injected. Hearts were excised from the rat and stored at −20° C. before being sliced into 1 mm thick transverse sections. Heart sections were incubated with triphenyltetrazolium chloride (TTC, 1%) at 37° C. for 30 minutes to demarcate the viable and nonviable myocardium within the risk zone. Area at risk and infarcted area were determined using image software.
Substance,recruitment of neutrophils to the site of injury/inflammation [1],"infarct size ([2]; Group 1: 30 ug/kg three times (T0 h, T3 h, T6 h), first dosage at establishment of reperfusion)","infarct size ([2]; Group 2: 30 ug/kg three times (T1 h, T4 h, T7 h), first dosage 1 hour post establishment of reperfusion)","infarct size ([2]; Group 3: 30 ug/kg three times (T2 h, T5 h, T8 h), first dosage 2 hours post establishment of reperfusion)"
"Ac2-26: Annexin A1 peptide which mimics the 2nd to the 26th amino acids of the 54-amino acid N-terminal region (Ac-AMVSEFLKQAWFIENEEQEYVQTVK; UniProt P04083 2-26, looked up, fragment)",significantly reduce the recruitment of neutrophils,–,–,–
AMVSEFLKQAWFIENEEQEYVQTLKSSKGGPGSAVSPYPTFNPSSDV (AMVSEFLKQAWFIENEEQEYVQTLKSSKGGPGSAVSPYPTFNPSSDV-NH2; ends and bridges not checked) [Peptide 1],–,significantly reduced infarct size,reduced infarct size to a similar degree; also recorded: significantly reduced infarct size,reduced infarct size to a similar degree; also recorded: significantly reduced infarct size
